Laboratory results from the NIST ThermoML archive (doi:10.1016/j.jct.2014.07.022).
± gives the expanded uncertainty stated by the source.

Experiment: xn = mol fraction of the nth substance listed
Settings: Gas, Spherical resonator

[C-]#[O+] [carbon monoxide] + N#N
Settings | speed of sound [m/s]
273.04 K, 5000 kPa, x1 = 0.04999 | 345.57 ± 0.57
273.04 K, 7995 kPa, x1 = 0.04999 | 354.43 ± 0.59
273.05 K, 99 kPa, x1 = 0.04999 | 336.94 ± 0.56
273.05 K, 995 kPa, x1 = 0.04999 | 337.99 ± 0.56
273.05 K, 2997 kPa, x1 = 0.04999 | 341.18 ± 0.57
273.05 K, 3989 kPa, x1 = 0.04999 | 343.2 ± 0.57
273.05 K, 5997 kPa, x1 = 0.04999 | 348.21 ± 0.58
273.05 K, 6998 kPa, x1 = 0.04999 | 351.18 ± 0.58
273.11 K, 1992 kPa, x1 = 0.04999 | 339.44 ± 0.56
273.16 K, 996 kPa, x1 = 0.1002 | 338.03 ± 0.56
273.17 K, 1993 kPa, x1 = 0.1002 | 339.46 ± 0.56
273.17 K, 2993 kPa, x1 = 0.1002 | 341.21 ± 0.57
273.17 K, 4989 kPa, x1 = 0.1002 | 345.57 ± 0.57
273.17 K, 6000 kPa, x1 = 0.1002 | 348.25 ± 0.58
273.18 K, 3997 kPa, x1 = 0.1002 | 343.25 ± 0.57
273.18 K, 6994 kPa, x1 = 0.1002 | 351.2 ± 0.58
273.18 K, 8019 kPa, x1 = 0.1002 | 354.55 ± 0.59
273.18 K, 8970 kPa, x1 = 0.1002 | 357.95 ± 0.59
273.2 K, 9955 kPa, x1 = 0.1002 | 361.78 ± 0.6
273.24 K, 9010 kPa, x1 = 0.04999 | 358.19 ± 0.59
273.24 K, 9993 kPa, x1 = 0.04999 | 361.99 ± 0.6
324.94 K, 117 kPa, x1 = 0.1002 | 367.62 ± 0.61
324.94 K, 5998 kPa, x1 = 0.1002 | 381.69 ± 0.63
324.94 K, 10006 kPa, x1 = 0.1002 | 394.85 ± 0.65
324.95 K, 1001 kPa, x1 = 0.1002 | 369.33 ± 0.61
324.95 K, 3002 kPa, x1 = 0.1002 | 373.73 ± 0.62
324.95 K, 3998 kPa, x1 = 0.1002 | 376.19 ± 0.62
324.95 K, 8963 kPa, x1 = 0.1002 | 391.17 ± 0.64
324.96 K, 1989 kPa, x1 = 0.1002 | 371.42 ± 0.61
324.96 K, 5002 kPa, x1 = 0.1002 | 378.87 ± 0.63
324.96 K, 6999 kPa, x1 = 0.1002 | 384.73 ± 0.63
324.96 K, 7996 kPa, x1 = 0.1002 | 387.92 ± 0.64
324.99 K, 8000 kPa, x1 = 0.04999 | 387.94 ± 0.64
325 K, 1002 kPa, x1 = 0.04999 | 369.31 ± 0.61
325 K, 1991 kPa, x1 = 0.04999 | 371.4 ± 0.6
325.01 K, 99 kPa, x1 = 0.04999 | 367.57 ± 0.61
325.01 K, 3003 kPa, x1 = 0.04999 | 373.73 ± 0.62
325.01 K, 4998 kPa, x1 = 0.04999 | 378.87 ± 0.63
325.03 K, 3999 kPa, x1 = 0.04999 | 376.21 ± 0.62
325.03 K, 5995 kPa, x1 = 0.04999 | 381.72 ± 0.63
325.05 K, 9002 kPa, x1 = 0.04999 | 391.36 ± 0.65
325.13 K, 10001 kPa, x1 = 0.04999 | 394.94 ± 0.65
325.23 K, 7007 kPa, x1 = 0.04999 | 384.9 ± 0.6
